Substitutions are numbered along the chain they refer to. Entries after “also recorded” stand apart in the source; their conditions may differ.
Experiments:
EHD2 = target: T1, EHD2 (Mus musculus, UniProt Q8BH64); experiment: ITC nucleotide binding to EHD2; conditions: ITC at 10° C.
T1 construct: Mouse EHD2 full-length protein and all mutants were expressed as N-terminal His-fusions followed by a PreScission cleavage site; His (N, cleaved yes); made in house; host or cells: Escherichia coli BL21 DE3 Rosetta
T1 sequence (Q8BH64 1-543): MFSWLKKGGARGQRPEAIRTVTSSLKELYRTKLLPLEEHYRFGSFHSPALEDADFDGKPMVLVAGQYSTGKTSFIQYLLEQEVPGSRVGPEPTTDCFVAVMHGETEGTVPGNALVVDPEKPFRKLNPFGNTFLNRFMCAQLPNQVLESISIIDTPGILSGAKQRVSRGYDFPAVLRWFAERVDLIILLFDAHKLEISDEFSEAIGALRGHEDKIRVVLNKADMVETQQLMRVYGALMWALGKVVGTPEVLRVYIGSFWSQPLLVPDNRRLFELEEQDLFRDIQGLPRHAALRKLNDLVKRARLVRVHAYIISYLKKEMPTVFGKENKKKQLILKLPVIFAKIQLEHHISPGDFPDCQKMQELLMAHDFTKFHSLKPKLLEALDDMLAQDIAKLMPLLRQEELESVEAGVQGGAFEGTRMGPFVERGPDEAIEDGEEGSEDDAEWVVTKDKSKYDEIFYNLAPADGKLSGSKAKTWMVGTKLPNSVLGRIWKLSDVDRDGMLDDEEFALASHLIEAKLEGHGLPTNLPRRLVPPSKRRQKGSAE
Procedure: (§1) Amino acid numbering corresponds to mouse EHD2. b, EHD2 binds to adenine nucleotides, as determined by ITC. For clarity, ΔΔH=ΔHn−ΔH1 is plotted. […] Images were acquired close to the basal cell surface. f, Nucleotide hydrolysis was measured by HPLC in the absence (empty symbols) or presence of Folch liposomes (filled symbols). Data represent mean and standard deviation for two (intrinisic reactions) or three (stimulated reactions) independent experiments.
(§2) ITC measurements were performed at 10° C. in 20 mM HEPES (pH 7.5), 300 mM NaCl, 2 mM MgCl2. Liposome binding assays were performed as described previously (www.endocytosis.org). Multiple turnover ATPase assays were performed in 20 mM HEPES (pH 7.5), 135 mM NaCl, 15 mM KCl, 1 mM MgCl2 at 30° C. with 10 μM EHD2 (or mutants) as enzyme and 100 μM ATP as substrate, in the absence or presence of 1 mg/ml Folch liposomes (Sigma-Aldrich).
Mouse full-length EHD2 was expressed in bacteria and purified to homogeneity (FIG. 5). The purified protein was nucleotide-free as judged by HPLC analysis. […] It was previously reported that EHDs—despite having a predicted G-domain—bind to adenine nucleotides^15. […] We still refer to this domain as a G-domain because the sequence and fold (see below) are clearly similar to other G-domains. […] Using synthetic liposomes containing various different phosphatidyl-inositols (PI) (FIG. 1c) we observed best binding to liposomes containing PI(4,5)bisphosphate (PIP2).

EHD2(T72A) = target: T2, EHD2(T72A) (Mus musculus, UniProt Q8BH64, T72A); experiment: ITC nucleotide binding to EHD2(T72A) P-loop mutant; conditions: ITC at 10° C.
T2 construct: Mouse EHD2 full-length protein and all mutants were expressed as N-terminal His-fusions followed by a PreScission cleavage site; His (N, cleaved yes); made in house; host or cells: Escherichia coli BL21 DE3 Rosetta
T2 sequence (Q8BH64 1-543 T72A): T1 sequence (Q8BH64 1-543) with T72A
Procedure: as §1, §2
Mouse full-length EHD2 was expressed in bacteria and purified to homogeneity (FIG. 5). The purified protein was nucleotide-free as judged by HPLC analysis. […] It was previously reported that EHDs—despite having a predicted G-domain—bind to adenine nucleotides^15. […] We still refer to this domain as a G-domain because the sequence and fold (see below) are clearly similar to other G-domains. […]

T94A mutant of EHD2 = target: T3, T94A mutant of EHD2 (Mus musculus, UniProt Q8BH64, T94A); experiment: ITC nucleotide binding to EHD2 T94A mutant; conditions: ITC as in FIG. 1b
T3 construct: Mouse EHD2 full-length protein and all mutants were expressed as N-terminal His-fusions followed by a PreScission cleavage site; His (N, cleaved yes); made in house; host or cells: Escherichia coli BL21 DE3 Rosetta
T3 sequence (Q8BH64 1-543 T94A): T1 sequence (Q8BH64 1-543) with T94A
Procedure: Nucleotide hydrolysis was measured as described in FIG. 1f. In vitro tubulation activity of PS liposomes was analysed as described in FIG. 1d. f, EGFP-tagged mutants were over-expressed in HeLa cells. […] For each construct, three independent experiments with ≈50 cells/experiments were analysed.
as §2
In small GTPases, the role of positioning the water molecule is assigned to a catalytic glutamine from switch II^26. We studied the role of ATP hydrolysis to gain insights into the function of EHD2 in vivo. […] To confirm the role of ATP hydrolysis in EHD function we re-introduced a catalytic glutamine in the active site, at the position normally found for small GTPases (I157Q). […] Many of these puncta were highly mobile as determined by live-cell microscopy.

n (fitted ITC value), nucleotide binding to EHD2 (EHD2): 0.96
Kd (EHD2; 20 mM HEPES (pH 7.5), 300 mM NaCl, 2 mM MgCl2, read-out: affinity to EHD2 determined by ITC): 13 ± 3 µM
affinity of the T94A mutant to ATP-γ-S by ITC (T94A mutant of EHD2): nearly wild-type affinity
SMILES: Nc1ncnc2c1ncn2[C@@H]1O[C@H](COP(=O)(O)OP(=O)(O)OP(O)(O)=S)[C@@H](O)[C@H]1O [ATP-γ-S]
binding to EHD2(T72A) by ITC (EHD2(T72A)): no binding observed; also recorded: prevented binding

— patent publication US20120214173A1, “Methods of Identifying Modulators of an Ehd Polypeptide” (priority 2007, published 2012)
